Test results: PMC10298275, “Antiproliferative Activity and Impact on Human Gut Microbiota of New O-Alkyl Derivatives of Naringenin and Their Oximes” (International Journal of Molecular Sciences, 2023)
In brackets after ≈: the same amount, converted by molar mass. Where two headings read alike, the source gives them in different places.

Key:
Escherichia coli K12 [1] = experiment: MBC assay; format: cell-based; conditions: Escherichia coli; E. coli K12; read-out: MBC
Protocol: (§1) The minimum bactericidal concentration (MBC) was tested for all naringenin derivatives. First, 10 µL of medium was taken from the plate, on which the MIC was determined for the MIC value, the value below and the two values above. This volume was transferred to TSA or MC agar. After 18–24 h (depending on strain) incubation at 37 °C, colonies were counted. The concentration of test compounds at which no bacterial growth was observed was defined as the MBC value. Each experiment was repeated 3 times.

[2] = tested on: Enterococcus faecalis ATCC 29212; experiment: MBC assay; format: cell-based; conditions: Enterococcus faecalis, ATCC29212; E. faecalis ATCC 29212; read-out: MBC
Protocol: as §1

[3] = tested on: Staphylococcus aureus ATCC 25923; experiment: MBC assay; format: cell-based; conditions: Staphylococcus aureus, ATCC25923; S. aureus ATCC 25923; read-out: MBC
Protocol: as §1

HT-29 cells [4] = experiment: MTT assay, cell viability; format: cell-based, human; conditions: HT-29, highest concentration 100 µg/mL, 24 h
Protocol: (§2) The HT-29 cells (ATCC, Manassas, VA, USA) were cultured within α-MEM (IIET PAS, Wrocław, Poland) supplemented with 10% fetal bovine serum (Sigma, St. Louis, MO, USA), antimycotic (100 μg/mL penicillin, 100 μg/mL streptomycin and 0.25 μg/mL amphotericin) (Sigma) and 2 mM glutamine (Sigma). The 3T3-L1 cells (ATCC, Manassas, VA, USA) were cultivated using DMEM high-glucose medium (IIET PAS, Wrocław, Poland) supplemented as above. Both cell lines were cultured at 37 °C in an atmosphere of 5% CO2.
First, 1 × 10^4 HT-29 cells or 5 × 10^3 3T3-L1 cells were seeded into a 96-well plate and incubated for one night. Then, cells were treated with different concentrations of the investigated compounds within 24 h. Afterwards, the medium was replaced with a fresh medium containing 0.5 mg/mL of 3-(4,5-dimethylthiazol-2-yl)-2,5-diphenyl-2H-tetrazolium bromide (MTT, Sigma) and incubated for 2 h at 37 °C. After removing the medium, the formazan salts were dissolved in dimethyl sulfoxide (DMSO, Sigma), and the absorbance of the solution was measured at 560 nm using a plate reader.

HT-29 cells [5] = experiment: SRB assay, cytotoxicity; format: cell-based, human; conditions: HT-29, SRB, up to 100 µg/mL
Protocol: as §2
(§3) The sulforhodamine B (SRB) assay was performed according to a previously published protocol. Briefly, 1 × 10^4 HT-29 or 5 × 10^3 3T3-L1 cells were seeded into 96-well plates. After attaching to the plate surface, the cells were incubated with 100, 75, 50, 25, 10 or 1 µg/mL of the investigated compounds for 24 h. After this time, proteins were precipitated with trichloroacetic acid and stained with SRB. The absorbance was measured at 560 nm using a GloMax Discover Microplate Reader (Promega, Madison, WI, USA).

SRB assay, cytotoxicity [6] = format: cell-based, human; conditions: human, HT-29 cells; HT-29, SRB, 24 h exposure, three independent repeats; read-out: Cytotoxicity (IC50 ± SD)
Protocol: as §2, §3

Escherichia coli K12 [7] = experiment: MIC, microdilution method; format: cell-based; conditions: Escherichia coli; E. coli K12; MHB, 18 h, 37 °C; tested 512 to 1 µg/mL; read-out: MIC
Protocol: (§4) Non-pathogenic reference strains representing the intestinal microbiome were used for the studies: Escherichia coli K12, Staphylococcus aureus ATCC 25923 and Enterococcus faecalis ATCC 29212. All strains were obtained from the collection of the Department of Microbiology at the Medical University of Wrocław.
(§5) The strains were received from the museum (−80 °C) and grown in tryptic soy broth (TSB, OXOID, Basingstoke, UK) under continuous shaking conditions (MaxQTM6000 incubator shaker, Thermo Scientific, Waltham, MA, USA) at 125 rpm at 37 °C. Then, they were moved to the growth media, namely tryptic soy agar (TSA, OXOID, Basingstoke, UK) and MacConkey agar (MC, Millipore, Darmstadt, Germany) for S. aureus or E. faecalis and E. coli, respectively.
(§6) A fresh 18–24 h culture was used for each study. For this purpose, a culture with a density of 1.5 × 10^8 CFU/mL in Mueller–Hinton broth (MHB, OXOID, Basingstoke, UK) was prepared and used for further microdilution studies.
(§7) The antimicrobial activity of the O-alkyl derivatives of naringenin and their oximes was tested in vitro using the microdilution method, showing the minimum inhibitory concentration (MIC), in accordance with the recommendations of the European Antimicrobial Susceptibility Testing Committee EUCAST [44]. MICs were determined in 96-well microdilution plates. The tests were carried out in MHB medium. The O-alkyl derivatives of naringenin and their oximes were tested in the concentration range of 512 to 1 µg/mL in a geometric process in MHB medium. The final concentration of the test strains in each test well was 5 × 10^5 CFU/mL. MICs were read after 18 h (for E. coli and S. aureus) and 24 h (for E. faecalis) incubation at 37 °C.
(§8) A strain growth control (tested strain in medium), background control for tested compounds (naringenin derivatives in MHB), medium control (only pure MHB) and compound solvent control (DMSO at test compound concentration, strain and MHB) were set for each experiment. Each test was set up with three independent experiments, each as three separate replicates.
(§9) The […], OD600, was measured in a plate reader (ASYS UVM340, BIOCHROM Ltd., Cambridge, UK). The background control of the tested compounds and the clean medium were included in the absorbance results.

[8] = tested on: Enterococcus faecalis ATCC 29212; experiment: MIC, microdilution method; format: cell-based; conditions: E. faecalis ATCC 29212, MHB, 24 h, 37 °C, tested 512 to 1 µg/mL
Protocol: as §4, §5, §6, §7, §8, §9

[9] = tested on: Staphylococcus aureus ATCC 25923; experiment: MIC, microdilution method; format: cell-based; conditions: S. aureus ATCC 25923, MHB, 18 h, 37 °C, tested 512 to 1 µg/mL
Protocol: as §4, §5, §6, §7, §8, §9

SRB assay, cytotoxicity [10] = format: cell-based, mouse; conditions: mouse, 3T3-L1 cells; 3T3-L1, SRB, 24 h exposure, three independent repeats; read-out: Cytotoxicity (IC50 ± SD)
Protocol: as §2, §3

HT-29 cells [11] = experiment: RealTime-Glo Annexin V Apoptosis and Necrosis Assay; format: cell-based, human; conditions: HT-29, during 12 h incubation, applied concentrations 10-100 µg/mL
Protocol: The process of apoptosis was determined using the RealTime-Glo Annexin V Apoptosis and Necrosis Assay (Promega) according to the manufacturer’s protocol. Briefly, 1 × 10^4 HT-29 cells were seeded into a single well of a 96-well plate. After overnight incubation, the cells were treated with 10, 25, 50 and 100 µg/mL of the investigated compounds and detection reagent for 24 h. As a negative control, untreated cells were used. The luminescence, fluorescence and OD525 signals were detected at each hour of the first 12 h of incubation. The end measurement was performed at the 24th hour of the experiment. All samples were prepared in triplicate, and then their means were calculated.

[12] = tested on: caspase 3/7 in HT-29 cells; experiment: Caspase-Glo 3/7 Assay; format: cell-based, human; conditions: HT-29, 50 µg/mL, measured at 6, 12, 24 and 48 h
Protocol: The activity of two effector caspases 3 and 7 was analyzed using the Caspase-Glo 3/7 Assay (Promega) according to the recommendations of the manufacturer. The cells were seeded at a density of 1 × 10^4 per well for the test on a 96-well plate. Then, cells were incubated with A2, B2, A9, B9 and NG at a concentration of 50 µg/mL for 48 h. Half an hour before each measurement of caspase activity, an equal volume of Caspase-Glo 3/7 substrate solution was added to cells. The luminescence signals were detected using a GloMax Discover Microplate Reader at the 6th, 12th, 24th and 48th hours of the experiment. The reactions for each sample were repeated in triplicate and presented as the mean value.

[13] = Enterococcus faecalis, ATCC29212, read-out: MIC
[14] = Staphylococcus aureus, ATCC25923, read-out: MIC

| SMILES | melting point [°C] | MIC (Escherichia coli K12 [7]) [mg/L] | MIC [8, 13] [mg/L] | MIC [9] | MIC [9, 14] [mg/L] | MIC [8] | MBC (Escherichia coli K12 [1]) [mg/L] | MBC [2] [mg/L] | MBC [3] [mg/L] | effect on colon adenocarcinoma cells (viability, MTT) (HT-29 cells [4]) | effect on the proliferation of the HT-29 cell line (HT-29 cells [5]) | IC50 at 24 h (SRB assay, cytotoxicity [6]) [mg/L] | IC50 at 24 h (SRB assay, cytotoxicity [10]) [mg/L] | annexin V luminescence and necrosis fluorescence signals versus untreated cells (HT-29 cells [11]) | caspase 3/7 activation [12] |
| --- | --- | --- | --- | --- | --- | --- | --- | --- | --- | --- | --- | --- | --- | --- | --- |
| CCCCCCCOc1ccc([C@@H]2CC(=O)c3c(O)cc(OCCCCCCC)cc3O2)cc1 [A4, 7,4′-Di-O-heptylnaringenin] | 74 to 75 | > 512 | 32 (≈ 68.3 µM) | >512 (>512) µg/mL | > 512 |  | > 512 | > 512 | > 512 | weak | no effect on the proliferation | > 100 | > 100 |  |  |
| CCCCCCCCOc1ccc([C@@H]2CC(=O)c3c(O)cc(OCCCCCCCC)cc3O2)cc1 [A6, 7,4′-Di-O-octylnaringenin] | 60 to 61 | > 512 | 32 (≈ 64.4 µM) | >512 (>512) µg/mL | > 512 |  | > 512 | > 512 | > 512 | weak | no effect on the proliferation | > 100 | > 100 |  |  |
| CCCCCCCCCOc1ccc([C@@H]2CC(=O)c3c(O)cc(OCCCCCCCCC)cc3O2)cc1 [A8, 7,4′-Di-O-nonylnaringenin] | 70 to 71 | > 512 | 512 (≈ 976 µM) | 512 (>512) µg/mL | 512 (≈ 976 µM) | 512 (>512) µg/mL | > 512 | > 512 | > 512 | weak | no effect on the proliferation | > 100 | > 100 |  |  |
| CCCCCCCCCCCOc1ccc([C@@H]2CC(=O)c3c(O)cc(OCCCCCCCCCCC)cc3O2)cc1 [A10, 7,4′-Di-O-undecylnaringenin] | 63 to 64 | > 512 | 32 (≈ 55.1 µM) |  | 256 (≈ 441 µM) |  | > 512 | > 512 | > 512 | weak | no effect on the proliferation | > 100 | > 100 |  |  |

The next lines start with results.

| melting point [°C] | MIC (Escherichia coli K12 [7]) [mg/L] | MIC [8, 13] [mg/L] | MIC [9] | MIC [9, 14] [mg/L] | MIC [8] | SMILES | MBC (Escherichia coli K12 [1]) [mg/L] | MBC [2] [mg/L] | MBC [3] [mg/L] | effect on colon adenocarcinoma cells (viability, MTT) (HT-29 cells [4]) | effect on the proliferation of the HT-29 cell line (HT-29 cells [5]) | IC50 at 24 h (SRB assay, cytotoxicity [6]) [mg/L] | IC50 at 24 h (SRB assay, cytotoxicity [10]) [mg/L] | annexin V luminescence and necrosis fluorescence signals versus untreated cells (HT-29 cells [11]) | caspase 3/7 activation [12] |
| --- | --- | --- | --- | --- | --- | --- | --- | --- | --- | --- | --- | --- | --- | --- | --- |
|  | > 512 | > 512 |  | > 512 | >512 (>512) µg/mL | CCCCCCOc1ccc([C@@H]2CC(=NO)c3c(O)cc(OCCCCCC)cc3O2)cc1 [B2, 7,4′-di-O-hexylnaringenin oxime] | > 512 | > 512 | > 512 |  |  | 49.8 ± 1.63 (≈ 109 µM) | 10.1 ± 6.49 (≈ 22.1 µM) | both signals were similar to those for untreated cells | neither membrane switching of phosphatidylserine nor caspase activation was observed |
| 85 to 86 | > 512 | > 512 |  | > 512 | >512 (>512) µg/mL | CCCCCCCCOc1ccc([C@@H]2CC(=NO)c3c(O)cc(OCCCCCCCC)cc3O2)cc1 [B6, 7,4′-Di-O-octylnaringenin oxime] | > 512 | > 512 | > 512 |  | no effect on the proliferation | > 100 | > 100 |  |  |
| 87 to 88 | > 512 | > 512 |  | > 512 | >512 (>512) µg/mL | CCCCCCCCCOc1ccc([C@@H]2CC(=NO)c3c(O)cc(OCCCCCCCCC)cc3O2)cc1 [B8, 7,4′-Di-O-nonylnaringenin oxime] | > 512 | > 512 | > 512 |  | no effect on the proliferation | > 100 | > 100 |  |  |
| 95 to 96 | > 512 | > 512 |  | > 512 | >512 (>512) µg/mL | CCCCCCCCCCCOc1ccc([C@@H]2CC(=NO)c3c(O)cc(OCCCCCCCCCCC)cc3O2)cc1 [B10, 7,4′-Di-O-undecylnaringenin oxime] | > 512 | > 512 | > 512 |  | no effect on the proliferation | > 100 | > 100 |  |  |
